Patent US9326506B2, “Preparation method, agricultural composition and applications of natural brassinolide analogs” (CHENGDU NEWSUN CROPSCIENCE CO., LTD, priority 2012, dated 2016)

Tested on: rice
Experiment: Low temperature assay on rice seedlings
Format: in vivo
Description: According to a low temperature assay, we measured parameters including plant height, number of leaf, area of leaf, number of tiller, weight of root at low temperature to completely determine effects of the natural brassinolide analogues on the resistance to low temperature of a plant.
The natural brassinolide analogues, BR1, BR2, BR3, BR4, BR5 and BR6, used herein, were those prepared by the method of Example 1. Respectively the analogues were dissolved into 95% (V/V) ethanol solution, and then diluted with pure water to 1 mg/L, 0.1 mg/L, 0.01 mg/L, 0.001 mg/L and 0.0001 mg/L. In addition, pure water was used as a control.
After rice seeds were disinfected by using 5% sodium hypochlorite solution treatment, they were rinsed with distilled water until their pH>7, placed into a petri dish in a dark incubator, and cultured by using water at 30° C.±2° C. for 9 days. Then respectively the nine-day-old etiolated seedlings of rice were immersed in the above solutions containing different concentrations of the natural brassinolide analogues or pure water, and cultured at the temperature of 1° C., 2° C., 3° C., 4° C. and 5° C. for 24 hr. The parameters including plant height, area of leaf and weight of root after 3, 6, 9 and 12 days and number of leaf and number of tiller after 12 days were measured.

With `C=C(C(C)C)[C@@H](O)[C@H](O)[C@@H](C)[C@H]1CCC2C3COC(=O)C4C[C@H](O)[C@H](O)C[C@]4(C)C3CC[C@@]21C` (stereo partly drawn) [BR3] the Area of leaf (0.0001 mg/l, 1 °C, 3 days) was 9.8 cm^2, the Height (0.0001 mg/l, 1 °C, 3 days) was 6.8 cm and the Weight of root (0.0001 mg/l, 1 °C, 3 days) was 2.8 g. For the same compound, the Area of leaf (0.0001 mg/l, 1 °C, 6 days) was 11 cm^2, the Height (0.0001 mg/l, 1 °C, 6 days) was 6.9 cm and the Weight of root (0.0001 mg/l, 1 °C, 6 days) was 3 g. The Area of leaf (0.0001 mg/l, 1 °C, 9 days) was 12.2 cm^2, the Height (0.0001 mg/l, 1 °C, 9 days) was 7.1 cm and the Weight of root (0.0001 mg/l, 1 °C, 9 days) was 3.4 g. For the same compound, the Area of leaf (0.0001 mg/l, 1 °C, 12 days) was 13.1 cm^2, the Height (0.0001 mg/l, 1 °C, 12 days) was 7.2 cm and the Number of leaf (0.0001 mg/l, 1 °C, 12 days) was 3. It also gave a Number of tiller (0.0001 mg/l, 1 °C, 12 days) of 3, a Weight of root (0.0001 mg/l, 1 °C, 12 days) of 3.9 g and an Area of leaf (0.0001 mg/l, 2 °C, 3 days) of 10 cm^2. For the same compound, the Height (0.0001 mg/l, 2 °C, 3 days) was 6.8 cm, the Weight of root (0.0001 mg/l, 2 °C, 3 days) was 2.8 g and the Area of leaf (0.0001 mg/l, 2 °C, 6 days) was 11.7 cm^2. For the same compound, the Height (0.0001 mg/l, 2 °C, 6 days) was 7 cm, the Weight of root (0.0001 mg/l, 2 °C, 6 days) was 3.0 g and the Area of leaf (0.0001 mg/l, 2 °C, 9 days) was 12.1 cm^2. The Height (0.0001 mg/l, 2 °C, 9 days) was 7.1 cm, the Weight of root (0.0001 mg/l, 2 °C, 9 days) was 3.2 g and the Area of leaf (0.0001 mg/l, 2 °C, 12 days) was 13 cm^2. The Height (0.0001 mg/l, 2 °C, 12 days) was 7.4 cm, the Number of leaf (0.0001 mg/l, 2 °C, 12 days) was 3 and the Number of tiller (0.0001 mg/l, 2 °C, 12 days) was 3. The Weight of root (0.0001 mg/l, 2 °C, 12 days) was 3.9 g, the Area of leaf (0.0001 mg/l, 3 °C, 3 days) was 10 cm^2 and the Height (0.0001 mg/l, 3 °C, 3 days) was 6.9 cm. For the same compound, the Weight of root (0.0001 mg/l, 3 °C, 3 days) was 2.5 g, the Area of leaf (0.0001 mg/l, 3 °C, 6 days) was 11.8 cm^2 and the Height (0.0001 mg/l, 3 °C, 6 days) was 7.1 cm. The Weight of root (0.0001 mg/l, 3 °C, 6 days) was 2.6 g, the Area of leaf (0.0001 mg/l, 3 °C, 9 days) was 12.1 cm^2 and the Height (0.0001 mg/l, 3 °C, 9 days) was 7.4 cm. It also gave a Weight of root (0.0001 mg/l, 3 °C, 9 days) of 2.9 g, an Area of leaf (0.0001 mg/l, 3 °C, 12 days) of 13.2 cm^2 and a Height (0.0001 mg/l, 3 °C, 12 days) of 7.5 cm. It also gave a Number of leaf (0.0001 mg/l, 3 °C, 12 days) of 3, a Number of tiller (0.0001 mg/l, 3 °C, 12 days) of 2 and a Weight of root (0.0001 mg/l, 3 °C, 12 days) of 2.9 g. For the same compound, the Area of leaf (0.0001 mg/l, 4 °C, 3 days) was 10 cm^2, the Height (0.0001 mg/l, 4 °C, 3 days) was 6.9 cm and the Weight of root (0.0001 mg/l, 4 °C, 3 days) was 2.5 g. It also gave an Area of leaf (0.0001 mg/l, 4 °C, 6 days) of 11.5 cm^2, a Height (0.0001 mg/l, 4 °C, 6 days) of 7.3 cm and a Weight of root (0.0001 mg/l, 4 °C, 6 days) of 2.6 g. The Area of leaf (0.0001 mg/l, 4 °C, 9 days) was 13 cm^2, the Height (0.0001 mg/l, 4 °C, 9 days) was 7.5 cm and the Weight of root (0.0001 mg/l, 4 °C, 9 days) was 2.9 g. The Area of leaf (0.0001 mg/l, 4 °C, 12 days) was 13.4 cm^2, the Height (0.0001 mg/l, 4 °C, 12 days) was 7.5 cm and the Number of leaf (0.0001 mg/l, 4 °C, 12 days) was 3. For the same compound, the Number of tiller (0.0001 mg/l, 4 °C, 12 days) was 2, the Weight of root (0.0001 mg/l, 4 °C, 12 days) was 2.9 g and the Area of leaf (0.0001 mg/l, 5 °C, 3 days) was 10.2 cm^2. The Height (0.0001 mg/l, 5 °C, 3 days) was 7.0 cm, the Weight of root (0.0001 mg/l, 5 °C, 3 days) was 2.5 g and the Area of leaf (0.0001 mg/l, 5 °C, 6 days) was 12 cm^2. The Height (0.0001 mg/l, 5 °C, 6 days) was 7.4 cm, the Weight of root (0.0001 mg/l, 5 °C, 6 days) was 2.5 g and the Area of leaf (0.0001 mg/l, 5 °C, 9 days) was 13.4 cm^2. It also gave a Height (0.0001 mg/l, 5 °C, 9 days) of 7.5 cm, a Weight of root (0.0001 mg/l, 5 °C, 9 days) of 2.9 g and an Area of leaf (0.0001 mg/l, 5 °C, 12 days) of 14 cm^2. The Height (0.0001 mg/l, 5 °C, 12 days) was 7.7 cm, the Number of leaf (0.0001 mg/l, 5 °C, 12 days) was 3 and the Number of tiller (0.0001 mg/l, 5 °C, 12 days) was 2. It also gave a Weight of root (0.0001 mg/l, 5 °C, 12 days) of 3.0 g, an Area of leaf (0.001 mg/l, 1 °C, 3 days) of 10 cm^2 and a Height (0.001 mg/l, 1 °C, 3 days) of 6.9 cm. It also gave a Weight of root (0.001 mg/l, 1 °C, 3 days) of 2.8 g, an Area of leaf (0.001 mg/l, 1 °C, 6 days) of 11.3 cm^2 and a Height (0.001 mg/l, 1 °C, 6 days) of 7.1 cm. It also gave a Weight of root (0.001 mg/l, 1 °C, 6 days) of 3.1 g, an Area of leaf (0.001 mg/l, 1 °C, 9 days) of 12.6 cm^2 and a Height (0.001 mg/l, 1 °C, 9 days) of 7.1 cm. It also gave a Weight of root (0.001 mg/l, 1 °C, 9 days) of 3.2 g, an Area of leaf (0.001 mg/l, 1 °C, 12 days) of 13 cm^2 and a Height (0.001 mg/l, 1 °C, 12 days) of 7.3 cm. The Number of leaf (0.001 mg/l, 1 °C, 12 days) was 3, the Number of tiller (0.001 mg/l, 1 °C, 12 days) was 3 and the Weight of root (0.001 mg/l, 1 °C, 12 days) was 3.9 g. For the same compound, the Area of leaf (0.001 mg/l, 2 °C, 3 days) was 9.8 cm^2, the Height (0.001 mg/l, 2 °C, 3 days) was 6.9 cm and the Weight of root (0.001 mg/l, 2 °C, 3 days) was 2.8 g.
